Measured values taken from patent publication US20240336562A1, “COMPOUND SERVING AS NLRP3 INHIBITOR” (Hangzhou Innogate Pharma Co., Ltd., priority 2021, published 2024).

Experiments:
[1] = biological target: NLRP3 (Homo sapiens (Human), UniProt Q96P20); assay: Inhibitory activity of NLRP3: IL1β induction in THP1 cells (PMA, LPS, nigericin) and IL1β ELISA detection; format: cell-based; details: THP-1, 300 nM compound, LPS 500 ng/mL + nigericin 10 μg/mL
Description: Study of the Compound's Inhibitory Activity of NLRP3 Step 1: IL1 β Induction 60 μL/well polylysine was added to 96-well cell culture plate and incubated at 37° C. for 30 min. Discard the solution in the plate and wash the cell culture plate twice with PBS. THP1 (50000 cells/well/95 μL) was planted in cell culture plates, 5 μL of PMA was added to each well (the final concentration was 50 ng/mL), and cultured overnight in a thermostat incubator at 37° C. The supernatant was gently sucked out, the cell culture plate was washed with PBS twice, and 80 μL cell culture medium without FBS, followed by 5 μL/well LPS (final concentration 500 ng/mL) was added to each well. The plate was cultured in a thermostat incubator at 37° C. for 3 hours. […] Then 10 μL/well nigericin (final concentration 10 μg/mL) was added to the cell plate and cultured in a thermostat incubator at 37° C. for 0.5 hours. The cell supernatant was collected into a new cell plate and frozen at -80° C. for future use. Step 2: IL1 β detection IL1β antibody was diluted 60 times with coating buffer, and 100 μL of diluted antibody was added to each well of ELISA plate, and incubated at 4° C. overnight. Discard the liquid in the ELISA plate and wash it 4 times with eluent. Add 300 μL/well reagent diluent and incubate the ELISA plate at room temperature for 1.5 hours. Wash the plate with eluent for four times. […] Wash the plate with eluent for four times. Each well was added with 100 μL detection antibody and incubated at 37° C. for 2 h. Wash the plate with eluent for four times. Add 100 μL of HRP labeled secondary antibody to each well. Incubate at 37° C. for 1 hour. Wash the plate with eluent for four times. Add 100 μL of A+B substrate per well. Incubate at 37° C. for 30 minutes. Add 100 μL STOP solution per well. Gently shake the plate for a few seconds. Read the absorption value at 450 nm on the EnVision multifunction reader and calculate the Inhibitory rate according to the following formula: Inhibition %=([…]). […] The log value of concentration was taken as the X-axis and the percentage inhibitory rate as the Y-axis. […]

[2] = Pharmacokinetic study in rats after intragastrical administration; format: in vivo; details: rat, male SD rats, oral 3 mg/kg, plasma
Description: Pharmacokinetic Study in Rats
Instruments: XEVO TQ-S LC/MS instrument produced by Waters. All measurement data is collected and processed by Masslynx V4.1 software, and the data is calculated and processed by Microsoft Excel. Using WinNonLin 8.0 software, the statistical moment method was used to calculate the pharmacokinetic parameters. Mainly include kinetic parameters Tmax, T1/2, Cmax, AUClast etc. Column: ACQUITY UPLC BEH C18 (2.1 mm×50 mm, 1.7 μm); column temperature 40° C.; mobile phase A is water (0.1% formic acid), mobile phase B is acetonitrile, flow rate is 0.350 ml/min, gradient elution is adopted, the elution gradient is 0.50 min: 10% B; 1.50 min: 90% B; 2.50 min: 90% B; 2.51 min: 10% B; 3.50 min: stop. Injection volume: 1 μL.
Animals: 3 male SD rats with a weight range of 200-220 g. After purchase, they will be kept in the laboratory of the Experimental Animal Center for 2 days and then used. They will be fasted for 12 hours predose and 4 hours after dosing. Drinking water is free during the test. After the rats were gavage, blood samples were taken according to the established time point.
Solvent: 0.4% ethanol+0.4% Tween80+99.2% (0.5% methylcellulose M450). Preparation of the solution for intragastrical administration: accurately weigh the compound, add it to the solvent, and use ultrasound at room temperature for 5 minutes to completely dissolve the drug, and prepare a 0.3 mg/mL medicinal solution.
Pharmaceutical samples: Generally, multiple samples with similar structures (with a molecular weight difference of more than 2 units) are taken, accurately weighed, and administered together (cassette PK). In this way, multiple compounds can be screened at the same time and their oral absorption rates can be compared. A single administration was also used to study the pharmacokinetics of the drug sample in rats.
After intragastrical administration, blood was taken from the orbit at 0.25, 0.5, 1, 2, 4, 8, 10 and 24 hours. Then take 50 μL of the plasma sample, add 200 μL of acetonitrile (including internal standard control verapamil 2 ng/mL), vortex for 3 min and centrifuge at 20000 ref, 4° C. for 10 min. The supernatant plasma was used for LC-MS/MS analysis.
Accurately weigh the compounds to prepare different concentrations, perform quantitative analysis on mass spectrometry to establish a standard curve, and then test the concentration of the above-mentioned compound in the plasma to obtain the compound concentration at different time points. All measurement data are collected and processed by relevant software, and the statistical moment method is used to calculate the pharmacokinetic parameters (mainly including kinetic parameters Tmax, T1/2, Cmax, AUClast etc).

NLRP3, sequence (Q96P20 whole entry): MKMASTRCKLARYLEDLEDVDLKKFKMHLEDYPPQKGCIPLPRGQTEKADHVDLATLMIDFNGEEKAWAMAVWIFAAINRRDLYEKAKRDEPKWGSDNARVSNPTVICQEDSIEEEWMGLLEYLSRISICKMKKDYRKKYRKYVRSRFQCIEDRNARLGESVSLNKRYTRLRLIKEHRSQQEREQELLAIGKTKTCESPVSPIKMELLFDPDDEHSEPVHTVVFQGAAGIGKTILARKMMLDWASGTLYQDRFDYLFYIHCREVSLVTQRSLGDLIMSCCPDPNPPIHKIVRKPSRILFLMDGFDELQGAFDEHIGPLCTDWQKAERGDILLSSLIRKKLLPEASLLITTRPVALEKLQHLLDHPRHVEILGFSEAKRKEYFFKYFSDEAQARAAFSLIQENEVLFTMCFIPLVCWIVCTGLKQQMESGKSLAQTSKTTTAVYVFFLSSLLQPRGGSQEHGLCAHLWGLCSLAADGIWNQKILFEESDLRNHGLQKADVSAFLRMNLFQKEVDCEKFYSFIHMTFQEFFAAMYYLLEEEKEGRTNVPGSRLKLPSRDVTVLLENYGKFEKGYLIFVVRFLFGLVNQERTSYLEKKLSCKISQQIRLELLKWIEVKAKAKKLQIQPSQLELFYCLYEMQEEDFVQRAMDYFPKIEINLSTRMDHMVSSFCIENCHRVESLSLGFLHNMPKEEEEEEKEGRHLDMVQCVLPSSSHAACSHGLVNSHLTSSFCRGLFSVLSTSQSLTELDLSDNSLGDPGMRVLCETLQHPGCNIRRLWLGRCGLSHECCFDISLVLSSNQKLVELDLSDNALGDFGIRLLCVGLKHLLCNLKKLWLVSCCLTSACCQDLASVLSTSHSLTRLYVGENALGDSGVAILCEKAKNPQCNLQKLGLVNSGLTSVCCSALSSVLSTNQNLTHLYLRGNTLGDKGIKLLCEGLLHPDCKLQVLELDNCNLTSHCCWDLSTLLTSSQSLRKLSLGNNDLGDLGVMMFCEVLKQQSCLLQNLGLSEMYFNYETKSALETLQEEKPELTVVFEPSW

SMILES | inhibition at 0.3 µM [1] [%] | Cmax [2] [ng/mL] | Tmax [2] [h] | half-life [2] [h] | AUC(0-t) ([2]; read-out: AUC(0-24)) [ng·h/mL]
Cc1cc2c(c(NC(=O)NS(C)(=O)=O)c1-c1ccnc(OCC3=CCN(C)CC3)c1)CCC2 [Compound 1] | > 50 | – | – | – | –
COc1cc(-c2c(C)cc3c(c2NC(=O)NS(=O)(=O)c2ccn(C4CC(=C(F)F)C4)n2)CCC3)ccn1 (stereo not shown) [Compound 22] | – | 1530 | 1 | 5.6 | 6710
Cc1cc2c(c(NC(=O)NS(=O)(=O)N(C)C)c1-c1ccnc(OCC3=CCCN(C)C3)c1)CCC2 [Compound 7] | > 50 | – | – | – | –
Cc1cc2c(c(NC(=O)NS(=O)(=O)C3CC3)c1-c1ccnc(OCC3=CCCN(C)C3)c1)CCC2 [Compound 6] | > 50 | – | – | – | –
